# Measurements taken from patent US9164103B2, “Monitoring and inhibiting human immunodeficiency virus infection by modulating HMGB1 dependent triggering of HIV-1 replication and persistence” (priority 2008, dated 2015).
# What was measured:
# [1] = test system: iDCs cocultured with aNK cells; test: aNK-dependent maturation of uninfected iDCs in aNK-iDC coculture (CD86/HLA-DR flow cytometry); type: cell-based, human; details: 24 h aNK-iDC coculture, inhibitor 10 μg/ml added at initiation
# Protocol: (a) Left panel: iDCs were cultured for 24 h either alone or with aNK cells, in the presence of blocking anti-HMGB1 antibodies (10 μg/ml) or glycyrrhizin (10 μg/ml). The maturation status of DCs was determined by flow cytometry with CD86 and HLA-DR—specific antibodies. Right panel: same experiment, but performed with HIV-1 infected iDCs. Data represent mean±sd of at least three independent experiments, and statistical comparisons were made with the non parametric Mann-Whitney test. * p<0.05. […] NK cells were excluded from the analysis through the co-staining with CD3- and CD56-specific antibodies (CD3^−CD56^+).
# To determine the possible involvement of HMGB1 in NK-dependent DC maturation, glycyrrhizin, which is known to interact specifically with soluble HMGB1 molecule31, was used as well as anti-HMGB1 antibodies (FIG. 3a). […] The possible involvement of RAGE during NK-DC cross-talk was evaluated with the same approach, comparing RAGE expression on DCs cocultured with aNK cells and DC cultured alone.
# After 6 days of culture in the presence of IL-4 and GM-CSF, iDCs (10^6 cells/ml) were either non stimulated, or stimulated during 48 h with 10 μg/ml LPS (E. coli serotype 026-B6, Sigma-Aldrich) to obtain DC0 cells, or 500 ng/ml of trimeric CD40L (Sigma-Aldrich) to obtain DC1 cells, or 10 μg/ml of LPS and 1 μg/ml PGE2 (Sigma-Aldrich) to obtain DC2 cells. […]
# R5-HIV-1Ba-L = test: HIV-1 replication in infected iDCs (p24 ELISA in culture supernatant); type: cell-based; details: for HIV-1 production (p24 in supernatant): 3 days, inhibitor 10 μg/ml
# Protocol: FIGS. 6 (a), (b) and (c). Exogenous rh-HMGB1 triggers HIV-1 and HIV-2 replication in iDC. (a) HIV-1-infected iDC were cultured alone or in the presence of aNK cells for 3 days. Rh-HMGB1 (1 μg/ml) was added in some cultures. HIV replication was measured by p24 quantification in culture supernatant (b) HIV1-infected iDC were cultured alone or in the presence of aNK cells for 3 days. Blocking anti-HMGB1 antibodies (10 μg/ml) or glycyrrhizin (10 μg/ml) were added at culture initiation. HIV replication was measured by p24 quantification in culture supernatant. The mean±sd of three independent experiments is shown. Statistical comparisons were made with the non parametric Mann-Whitney test. * p<0.05; (c) HIV-2-infected iDC were cultured alone or in the presence of aNK cells for 3 days. Rh-HMGB1 (1 μg/ml) was added in some cultures. HIV replication was measured by p24 quantification in culture supernatant.
# Exogenous HMGB1 was recently reported to increase HIV-1 replication in infected monocytic cell lines38, and to induce in vitro the reactivation of HIV-1 in PBMCs from HIV-1-infected patients under antiretroviral therapy39. Therefore, the question of the role of HMGB1 in the NK-dependent triggering of HIV replication in DCs was addressed. […] To investigate the influence of HMGB1 in the triggering of HIV-1 replication in infected-iDC-aNK cocultures, HMGB1-specific neutralizing antibodies or glycyrrhizin were added to these cocultures and p24 production was measured in the supernatant. […] They also indicate that aNK cell-dependent stimulation of HIV-1 replication in iDCs is mediated by HMGB1.
# Virus stock preparation was prepared by amplification of R5-HIV-1Ba-L on MDM from healthy donors. Viral stock was then clarified by centrifugation prior to determination of HIV1 p24 concentration. iDCs were plated in 96-well culture plates at 200,000 cells/well and incubated for 3 hours at 37° C. in a 5% CO2 atmosphere with R5-HIV-1BAL at various concentrations (0.001 to 10 ng p24/ml). Cells were harvested, washed four times with media containing 10% FCS and, when indicated, rNK or aNK cells were added at a NK:DC ratio of 1:5, unless otherwise indicated. NK-DC cocultures lasted 24 h before analysis of the maturation stage of DCs and/or quantification of viral production. In some experiments (FIG. 6), HIV-1 infected iDCs were incubated alone or with aNK cells for 3 days, in the presence of rh-HMGB1 (1 μg/ml) (R&DSystems), and in some cultures in the presence of rabbit antiHMGB1 Abs (10 μg/ml) (Abcam, Cambridge, UK) or Glycyrrhizin (10 μg/ml).
# The concentration of HIV-1 in the supernatant of infected cell cultures was determined by measuring the amount of p24 protein by ELISA (Ingen, Belgium). DNA from cells was extracted using the GIAamp DNA Blood Mini Kit (Qiagen, Basel, Switzerland) and quantified HIV-1 proviral load by RT-PCR as described previously54. The frequency of HIV-1-infected cells was determined by flow cytometry to detect intracellular p24 molecule. Cells were surface stained with antibodies specific for CD40 (BD Biosciences, San Jose, Calif.) to target DC and intracellular stained with p24-specific antibodies (Coulter). Stained cells were fixed in 1% PFA, immediately acquired on a FACScalibur (Becton Dickinson) and analyzed with FlowJo software. In some experiments infected DCs were imaged, after immunofluorescence, by laser scanning confocal microscopy.
# HIV-1-infected iDCs = test: Apoptosis of HIV-1-infected iDCs (7-AAD assay); type: cell-based, human
# Protocol: Living cells are 7-AAA^−, apoptotic cells 7-AAD^+, and apoptotic debris are 7-AAD^−FSC^low. Dot plots represent one of at least three independent experiments. […] Cell death was then quantified with the 7-AAD assay. The mean±sd of three independent experiments was presented.
# (a) iDCs or HIV-1-infected iDCs were cultured alone or in the presence of aNK cells (NK:DC ratio of 5:1). […] Cell death was then quantified with the 7-AAD assay. (b) Same experiments were performed in the presence of blocking anti-HMGB1 antibodies (10 and 15 μg/ml). One representative experiment out of three conducted is shown.
# Immature DCs (iDCs) were prepared from sorted monocytes from healthy donors, cultured for 6 days in the presence of IL-4 and GM-CSF. In some experiments, iDCs were infected with R5-HIV-1 (1 ng/ml of p24). Coculture experiments with autologous purified aNK cells (activated by PHA+IL-2) were performed at various NK:DC ratios. The influence of NK-DC interaction on DC's maturation and apoptosis was analyzed using multiparametric flow cytometry, combining 7-AAD staining with membrane and intracellular staining with mAbs specific for HLA-DR, DC-SIGN, CD83, CD86, DR4, mTRAIL, etc.
# To investigate the impact of HIV on aNK-induced iDCs' apoptosis, iDCs were infected with R5-HIV-1 (1 ng of p24/ml).
# iDCs = test: aNK-induced apoptosis of uninfected iDCs (7-AAD assay, NK:DC 5:1); type: cell-based, human; details: NK:DC ratio 5:1, 24 h
# Protocol: FIGS. 9(a)-(g). aNK-dependent apoptosis of iDCs is TNF-related apoptosis-inducing ligand (TRAIL)-dependent and involves the DR4 receptor. (a) CD56^+ NK cells were purified from the blood of healthy donors. NK cells were maintained in culture with suboptimal concentrations of interleukin-2 (IL-2) (100 ng/ml) (rNK cells) or activated (aNK cells) by the addition PHA (10 μg/ml) and IL-2 (10 μg/ml) to cultures. The intensity of staining with anti-CD56 antibodies allows the distinction between two NK cell populations expressing CD56 highly (CD56^bright cells) and weakly (CD56^dim cells). Data represent the mean±sd of three independent experiments. (b) Membrane TRAIL (mTRAIL) expression by NK cells is determined by flow cytometry with anti-CD56 and -mTRAIL specific antibodies. Data represent one of three independent experiments. […] The proportions of mTRAIL-expressing aNK cells among CD56^bright and CD56^dim populations were determined. […] DR4 expression at the DCs surface is analyzed after 1, 2, 3.5, 6 and 24 h of NK-DC coculture. […] Cell death was then quantified with the 7-AAD assay. […] (f) 24 h cell-free culture supernatants of iDCs, rNK cells, aNK cells (10^6/ml), or cocultures of aNK cells and iDCs (ratio 5:1) were tested for soluble TRAIL (sTRAIL) content. sTRAIL was quantified by ELISA. […] The viability status of DCs was determined by flow cytometry with the 7-AAD assay. […]
molecule,measurement,setting,value
CC1(C)[C@@H](O[C@H]2O[C@H](C(=O)O)[C@@H](O)[C@H](O)[C@H]2O[C@@H]2O[C@H](C(=O)O)[C@@H](O)[C@H](O)[C@H]2O)CC[C@]2(C)[C@H]3C(=O)C=C4[C@@H]5C[C@@](C)(C(=O)O)CC[C@]5(C)CC[C@@]4(C)[C@]3(C)CC[C@@H]12 [glycyrrhizin],proportions of mature DCs (CD86bright HLA-DRbright),[1],reduced the proportions of mature DCs
same,HIV-1 replication,"R5-HIV-1Ba-L; 24 h cultures of infected iDCs, absence of NK cells",decreased significantly HIV-1 replication
same,HIV-1 production (p24 in supernatant),R5-HIV-1Ba-L; infected DC cocultured with aNK cells,abrogated HIV-1 production
same,HIV-1 production (p24 in supernatant),R5-HIV-1Ba-L; infected DC cultured alone,abrogated HIV-1 production
same,resistance of HIV-1-infected iDCs to aNK-induced apoptosis,"HIV-1-infected iDCs; NK:DC ratio 5:1, inhibition assays",found dependent on HMGB1
C/C=C/[C@H]1O[C@@](O)([C@@H](C)[C@H](O)[C@H](C)[C@H]2OC(=O)/C(OC)=C/C(C)=C/[C@@H](C)[C@@H](O)[C@@H](CC)[C@@H](O)[C@H](C)C/C(C)=C/C=C/[C@@H]2OC)C[C@@H](O[C@H]2C[C@@H](O)[C@H](OC(N)=O)[C@@H](C)O2)[C@@H]1C [Concanamycin A],NK-dependent iDCs apoptosis,iDCs,no effect
"rhs-TRAIL: recombinant human soluble TRAIL (protein, UniProt P50591 39-281, looked up, extracellular domain) extracellular domain: TNELKQMQDKYSKSGIACFLKEDDSYWDPNDEESMNSPCWQVKWQLRQLVRKMILRTSEETISTVQEKQQNISPLVRERGPQRVAAHITGTRGRSNTLSSPNSKNEKALGRKINSWESSRSGHSFLSNLHLRNGELVIHEKGFYYIYSQTYFRFQEEIKENTKNDKQMVQYIYKYTSYPDPILLMKSARNSCWSKDAEYGLYSIYQGGIFELKENDRIFVSVTNEHLIDMDHEASFFGAFLVG",TRAIL-induced apoptosis of HIV-1-infected DCs,"HIV-1-infected iDCs; 24 h, 1-1000 ng/ml",still susceptible to TRAIL-induced apoptosis
